Source: patent publication EP0775489A1, “INTERLEUKIN-5 PRODUCTION INHIBITOR” (TAISHO PHARMACEUTICAL CO. LTD, priority 1994, dated 1996)

Key:
IL-5 production [1] = experiment: Inhibition of IL-5 production by D10.G4.1 Th2 cells stimulated with conalbumin and antigen presenting cells (IL-5 ELISA); type: cell-based; settings: inhibitory effect on IL-5 production; murine Th2 clone D10.G4.1 cells, conalbumin as antigen, 48 hours incubation, IL-5 in supernatant by ELISA
Protocol: The action on IL-5 production in mice was examined according to the following method as disclosed in […], et al., Immunology Letters, Vol. 34, pp. 297-302 (1992). Murine Th2 clone (D10.G4.1 cells) was purchased from ATCC. Antigen presenting cells were prepared by suspending 1 x 10^7 spleen cells of a 8-week-old female C3H/HeN mice in 5 ml of an RPMI-1640 medium and incubated together with 50 μg/ml of mitomycin C (MMC) at 37°C for 30 minutes and then washed with three 50 ml portions of RPMI-1640. To RPMI-1640 containing 10% bovine serum were added 0.5 U of IL-2 (produced by Genzyme) and 5 x 10^-5 M of 2-mercaptoethanol to prepare a medium for tissue culture. A test compound was dissolved in dimethyl sulfoxide (DMSO) and diluted with the tissue culture medium to have a final DMSO concentration of 0.1% and a varied test compound concentration. In each well of a 96-well microtiter plate (produced by Corning Glass Works) were put each 50 μl/well of 4 x 10^5 cells/ml of D10.G4.1 cells, 2 x 10^6 cells/ml of MMC-treated antigen presenting cells, 400 μg/ml of conalbumin (produced by Sigma) as an antigen and the solution of the test compound in the tissue culture medium (to make 200 μl/well), and incubated in an incubator under 5% CO2 at 37°C for 48 hours. After completion of the incubation, the supernatant liquor of the culture was collected, and the cells were separated by centrifugation. The IL-5 in the supernatant liquor was determined with an IL-5 ELISA kit produced by ENDOGEN. […]

ICR male mice = experiment: Oral toxicity (mortality) in mice; type: in vivo; settings: orally administered to ICR male mice grouped in fives, dose level of 100 mg/kg
Description: The compounds of Examples 1, 2, and 3 were orally administered to ICR male mice grouped in fives.

IL-5 production [2] = settings: reported in Japanese Journal of Allergology, 44(3-2), p. 424 (1993); judged not sufficient by the patent; cited from earlier work

With “6-O-Methylerythromycin A 9-[O-(2-Chlorophenylmethyl)oxime] [Compound of Example 1]” the IC50 (IL-5 production [1]) was 0.27 µM and the death (ICR male mice) was “No death was observed”.

For “6-O-Methylerythromycin A 9-[O-(3-Methoxy-4-t-butylbenzyl)oxime] 11,12-Cyclic Carbonate [Compound of Example 2]”, the IC50 (IL-5 production [1]) was 0.12 µM and the death (ICR male mice) was “No death was observed”.

For “11-Amino-9-N,11-N-cyclic ethylene-9-deoxo-11-deoxy-6-O-methylerythromycin A 9-Benzylamine 11-N,12-O-Cyclic Carbamate [Compound of Example 3]”, the IC50 (IL-5 production [1]) was 0.12 µM and the death (ICR male mice) was “No death was observed”.

In the case of `CC[C@H]1OC(=O)[C@H](C)[C@@H](O[C@H]2C[C@@](C)(OC)[C@@H](O)[C@H](C)O2)[C@H](C)[C@@H](O[C@@H]2O[C@H](C)C[C@H](N(C)C)[C@H]2O)[C@](C)(O)C[C@@H](C)C(=O)[C@H](C)[C@@H](O)[C@]1(C)O` [Erythromycin], the “inhibitory activity on IL-5 production” value (IL-5 production [2]) is given as “have an inhibitory activity on IL-5 production”.

In the case of `CC[C@H]1OC(=O)[C@H](C)[C@@H](O[C@H]2C[C@@](C)(OC)[C@@H](O)[C@H](C)O2)[C@H](C)[C@@H](O[C@@H]2O[C@H](C)C[C@H](N(C)C)[C@H]2O)[C@](C)(O)C[C@@H](C)/C(=N\OCOCCOC)[C@H](C)[C@@H](O)[C@]1(C)O` [Roxithromycin], the “inhibitory activity on IL-5 production” value (IL-5 production [2]) is listed as “have an inhibitory activity on IL-5 production”.
